According to ChEMBL document CHEMBL4406843, “β-Amino acid derivatives as mitochondrial complex III inhibitors of L. donovani: A promising chemotype targeting visceral leishmaniasis” (Eur J Med Chem, 2019):
Active and inactive are the calls of the source. The calls are words filed in the database; no cut-off is given here.

Assays:
Leishmania donovani [1] = assay: Antileishmanial activity against Leishmania donovani MHOM/IN/80/Dd8 amastigotes harboring luciferase reporter gene infected in mouse J774 cells at 50 uM after 72 hrs by Steady-Glo luminescence assay relative to control; format: functional; conditions: MHOM/IN/80/Dd8, J774, 72 h
Leishmania donovani [2] = assay: Antileishmanial activity against Leishmania donovani MHOM/IN/80/Dd8 amastigotes harboring luciferase reporter gene infected in mouse J774 cells at 100 uM after 72 hrs by Steady-Glo luminescence assay relative to control; format: functional; conditions: MHOM/IN/80/Dd8, J774, 72 h
[3] = Cytotoxicity against African green monkey Vero cells assessed as cell viability at 100 uM by MTT assay relative to control; format: cell-based; conditions: chlorocebus sabaeus, read-out: Activity
Leishmania donovani [4] = assay: Antileishmanial activity against promastigote stage of Leishmania donovani MHOM/IN/80/Dd8 harboring luciferase reporter gene at 100 uM after 48 hrs by Steady-Glo luminescence assay relative to control; format: functional; conditions: MHOM/IN/80/Dd8, 48 h
[5] = Cytotoxicity against African green monkey Vero cells assessed as cell viability at 25 uM by MTT assay relative to control; format: cell-based; conditions: chlorocebus sabaeus, read-out: Activity
[6] = Cytotoxicity against African green monkey Vero cells assessed as cell viability at 50 uM by MTT assay relative to control; format: cell-based; conditions: chlorocebus sabaeus, read-out: Activity
Leishmania donovani [7] = assay: Antileishmanial activity against promastigote stage of Leishmania donovani MHOM/IN/80/Dd8 harboring luciferase reporter gene at 50 uM after 48 hrs by Steady-Glo luminescence assay relative to control; format: functional; conditions: for inhibition at 50 µM: MHOM/IN/80/Dd8, 48 h
Leishmania donovani [8] = assay: Antileishmanial activity against Leishmania donovani MHOM/IN/80/Dd8 amastigotes harboring luciferase reporter gene infected in mouse J774 cells at 25 uM after 72 hrs by Steady-Glo luminescence assay relative to control; format: functional; conditions: for inhibition at 25 µM: MHOM/IN/80/Dd8, J774, 72 h
Leishmania donovani [9] = assay: Antileishmanial activity against promastigote stage of Leishmania donovani MHOM/IN/80/Dd8 harboring luciferase reporter gene at 25 uM after 48 hrs by Steady-Glo luminescence assay relative to control; format: functional; conditions: for inhibition at 25 µM: MHOM/IN/80/Dd8, 48 h
[10] = Stability in mouse liver microsomes assessed as compound remaining after 1 hr in presence of NADPH by UPLC analysis; format: ADME, Microsome; conditions: read-out: Stability
[11] = Stability in mouse plasma at 10 ug/ml measured after 2 hrs by UPLC analysis relative to control; format: ADME, cell-free; conditions: read-out: Stability
[12] = Stability in simulated intestinal fluid at 10 ug/ml measured after 2 hrs by UPLC analysis relative to control; format: ADME; conditions: read-out: Stability
[13] = Half life in mouse liver microsomes after 1 hr in presence of NADPH by UPLC analysis; format: ADME, Microsome
[14] = Stability in simulated gastric fluid at 10 ug/ml measured after 2 hrs by UPLC analysis relative to control; format: ADME; conditions: read-out: Stability
[15] = Intrinsic clearance in mouse liver microsomes after 1 hr in presence of NADPH by UPLC analysis; format: ADME, Microsome
Leishmania donovani [16] = assay: Induction of mitochondrial dysfunction in Leishmania donovani promastigotes assessed as reduction in mitochondrial membrane potential at 50 uM after 15 mins by JC-1 staining-based flow cytometric analysis (reference value: 7.73%); format: functional; design: scale not given: the % may be the effect or the level left
Leishmania donovani [17] = assay: Inhibition of succinate-ubiquinone oxidoreductase in Leishmania donovani promastigotes mitochondria using succinate as substrate in presence fo DCPIP by photometry analysis relative to control; conditions: concentration not given here
Leishmania donovani [18] = assay: Inhibition of ubiquinol cytochrome c reductase in Leishmania donovani promastigotes mitochondria at 2 uM using decylubiquinol as substrate in presence of cytochrome c relative to control
[19] = Selectivity index, ratio of CC50 for African green monkey Vero cells to IC50 for antileishmanial activity against Leishmania donovani MHOM/IN/80/Dd8 amastigotes harboring luciferase reporter gene; format: toxicity; conditions: read-out: Ratio CC50/IC50
[20] = Selectivity index, ratio of CC50 for mouse J774 cells to IC50 for antileishmanial activity against Leishmania donovani MHOM/IN/80/Dd8 amastigotes harboring luciferase reporter gene; format: toxicity; conditions: read-out: Ratio CC50/IC50

Row | SMILES | inhibition at 50 µM (Leishmania donovani [1]) | inhibition at 100 µM (Leishmania donovani [2]) | viability at 100 µM [3] | inhibition at 100 µM (Leishmania donovani [4]) | viability at 25 µM [5] | viability at 50 µM [6] | inhibition at 50 µM (Leishmania donovani [7]) | inhibition at 25 µM (Leishmania donovani [8]) | inhibition at 25 µM (Leishmania donovani [9]) | further results
1 | CCOC(=O)C(C(=O)c1ccc(OC)cc1)C(NC(C)=O)c1ccc(OC)c(OC)c1 (stereo not given) | 58.1% | 59.2% | 88.5% | 35.8% | 99.1% | 96.7% | 35% | 57.1% | 30.2% | 
2 | CSc1ccc(C(=O)C(c2ccc(Cl)c(Cl)c2)C(NC(=O)c2ccccc2)c2cccc3ccccc23)cc1 (stereo not given) | 69.4% | 72.3% | 89.2% | 45.6% | 98.2% | 93.9% | 42.1% | 43.1% | 33.4% | 
3 | CCOC(=O)C(C(=O)c1ccc(OC)cc1)C(NC(C)=O)c1cc(OC)ccc1Br (stereo not given) | 62.3% | 64.2% | 90.7% | 81.2% | 96.3% | 93.3% | 80.3% | 58.2% | 68% | remaining at 1 h [10]: 57.8%; remaining at 2 h, 10 ug/ml [11]: 6.97%; remaining at 2 h, 10 ug/ml [12]: 69.6%; half-life [13]: 1.55 h; remaining at 2 h, 10 ug/ml [14]: 71.1%; CLH [15]: 5 µL/min/mg
4 | CSc1ccc(C(=O)C(c2ccc(Cl)c(Cl)c2)C(NC(=O)c2ccc(C)cc2)c2cccc3ccccc23)cc1 (stereo not given) | 23.8% | 25.9% | 88.6% | 12.5% | 90.5% | 89.6% |  | 14.3% |  | inhibition (Leishmania donovani [7]): inactive; inhibition (Leishmania donovani [9]): inactive
5 | CSc1ccc(C(=O)C(c2ccc(Cl)c(Cl)c2)C(NC(C)=O)c2cccc3ccccc23)cc1 (stereo not given) | 31.5% | 36.4% | 87.2% | 78.6% | 90.1% | 89.3% | 74.3% | 25% | 55.8% | 
6 | CSc1ccc(C(=O)/C(=C/c2ccccn2)c2ccc(Cl)c(Cl)c2)cc1 | 36.2% | 38.5% | 89.6% | 76.6% | 97.9% | 93.6% | 74.6% | 17.5% | 53.4% | 
7 | CSc1ccc(C(=O)C(c2ccc(Cl)c(Cl)c2)C(NC(=O)c2ccc(Br)cc2)c2cccc3ccccc23)cc1 (stereo not given) | 38.3% | 39.2% | 88.5% | 77.2% | 92.8% | 90.2% | 74.9% | 21.2% | 56.3% | 
8 | CSc1ccc(C(=O)C(c2ccc(Cl)c(Cl)c2)C(NC(=O)c2cccc(C)c2)c2cccc3ccccc23)cc1 (stereo not given) | 14.5% | 19.3% | 87.6% | 36.9% | 95.8% | 90.7% | 36.4% | 5.9% | 27.2% | 
9 | CSc1ccc(C(=O)C(c2ccc(Cl)c(Cl)c2)C(NC(=O)c2ccccc2)c2cc3ccccc3s2)cc1 (stereo not given) | 16.5% | 18.3% | 88% | 33.2% | 97.2% | 92.4% | 30.5% | 11.8% | 22.4% | 
10 | N#CC(C#N)=NNc1cccc(Cl)c1 [CARBONYL CYANIDE M-CHLOROPHENYLHYDRAZONE] |  |  |  |  |  |  |  |  |  | Activity (Leishmania donovani [16]): 94.26%
11 | O=C(CC(=O)C(F)(F)F)c1ccco1 |  |  |  |  |  |  |  |  |  | inhibition (Leishmania donovani [17]): > 84%
12 | CSc1ccc(C(=O)C(c2ccc(Cl)c(Cl)c2)C(NC(=O)c2ccc(C)cc2)c2cc3ccccc3s2)cc1 (stereo not given) | 17.6% | 21% | 90.2% | 24.2% | 95.3% | 92.3% | 22.4% | 9.2% | 20.1% | 
13 | CCOC(=O)C(C(=O)c1ccc(OC)cc1)C(NC(C)=O)c1ccc(C(C)(C)C)cc1 (stereo not given) | 46.1% | 53.1% | 89.5% | 54.3% | 94.5% | 92.3% | 52.4% | 40.5% | 40.2% | 
14 | CCOC(=O)C(C(=O)c1ccc(OC)cc1)C(NC(C)=O)c1ccc(C(C)C)cc1 (stereo not given) | 44.4% | 55.3% | 90.4% | 34% | 98.8% | 96.5% | 33.5% | 29.4% | 30.8% | 
15 | CCOC(=O)C(C(=O)c1ccc(OC)cc1)C(NC(C)=O)c1cc(OC)c(OC)c(OC)c1 (stereo not given) | 51.1% | 51.3% | 88.9% | 43.1% | 97.8% | 94.3% | 40.2% | 25.4% | 28.3% | 
16 | CCCCCCC1C(=O)O[C@H](C)[C@H](NC(=O)c2cccc(NC=O)c2O)C(=O)O[C@@H](C)[C@@H]1OC(=O)CC(C)C (stereo not given in full) |  |  |  |  |  |  |  |  |  | inhibition (Leishmania donovani [18]): > 93%
17 | CSc1ccc(C(=O)/C(=C/c2cccnc2)c2ccc(Cl)c(Cl)c2)cc1 | 59.3% | 62.1% | 88.6% | 83.2% | 95.7% | 89.6% | 80.4% | 34.3% | 46.7% | 
18 | CSc1ccc(C(=O)/C(=C/c2cc3ccccc3s2)c2ccc(Cl)c(Cl)c2)cc1 | 2.6% | 2.8% | 87% | 72.1% | 93.4% | 91.6% | 70.3% |  | 62.1% | inhibition (Leishmania donovani [8]): inactive
19 | CCCCCCCCCCCCCCCCOP(=O)([O-])OCC[N+](C)(C)C [MILTEFOSINE] |  |  |  |  |  |  |  |  |  | selectivity ratio [19]: 5.3; selectivity ratio [20]: 5.8
20 | CSc1ccc(C(=O)C(c2ccc(Cl)c(Cl)c2)C(NC(=O)c2cccc(C)c2)c2cc3ccccc3s2)cc1 (stereo not given) | 21.9% | 27.2% | 87.3% | 35.1% | 92.1% | 90.6% | 30.4% | 12% | 24.3% | 
